# Reference: patent publication US20100087475A1, “PHARMACEUTICAL COMPOUNDS” (Biovali Laboratories International (Barbados) S.R.L., priority 2008, published 2010)
# Tests used:
# Conditions in all cases: compound at 10 μM
# [1] = system: Imidazoline I2 (Central) Receptor; test: Radioligand binding, [3H] Idazoxan, cerebral cortex; set-up: species or system Wistar rat
# Method: (§1) Compounds of the invention were subjected to specific binding assays to test their ability to bind to the receptors and transporter proteins described below.
# (k) Imidazoline I2 (Central) Receptor:
# • Reference: Brown et al., Brit. J. Pharmacol., 99:803-809, (1990) • Source: Wistar rat cerebral cortex • Ligand: 2 nM [^3H]
# [2] = target: T1, Dopamine D3 Receptor (Homo sapiens, UniProt P35462); test: Radioligand binding, [3H] Spiperone
# T1 construct: expressed in transfected cells; host or cells: CHO cells
# T1 sequence (P35462 whole entry): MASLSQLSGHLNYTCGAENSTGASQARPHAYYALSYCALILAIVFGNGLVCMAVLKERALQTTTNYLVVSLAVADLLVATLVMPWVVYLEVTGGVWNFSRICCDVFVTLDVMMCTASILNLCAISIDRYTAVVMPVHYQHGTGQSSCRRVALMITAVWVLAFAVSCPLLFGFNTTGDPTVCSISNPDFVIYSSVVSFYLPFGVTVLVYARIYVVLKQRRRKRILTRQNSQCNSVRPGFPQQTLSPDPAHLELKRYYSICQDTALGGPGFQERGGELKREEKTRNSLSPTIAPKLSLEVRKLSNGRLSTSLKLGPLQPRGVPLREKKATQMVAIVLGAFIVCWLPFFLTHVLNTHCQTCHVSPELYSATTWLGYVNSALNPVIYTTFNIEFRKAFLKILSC
# Method: as §1
# (g) Dopamine D3 Receptor:
# • Reference: Sokoloff et al., Nature, 347:146-151, (1990) • Source: Human recombinant CHO cells • Ligand: 0.7 nM [3H]
# [3] = target: T2, Dopamine D4.2 Receptor (Homo sapiens, UniProt P21917, DEL265-296); test: Radioligand binding, [3H] Spiperone
# T2 construct: expressed in transfected cells; host or cells: CHO-K1 cells
# T2 sequence (P21917 with tags, fused parts or gaps DEL265-296): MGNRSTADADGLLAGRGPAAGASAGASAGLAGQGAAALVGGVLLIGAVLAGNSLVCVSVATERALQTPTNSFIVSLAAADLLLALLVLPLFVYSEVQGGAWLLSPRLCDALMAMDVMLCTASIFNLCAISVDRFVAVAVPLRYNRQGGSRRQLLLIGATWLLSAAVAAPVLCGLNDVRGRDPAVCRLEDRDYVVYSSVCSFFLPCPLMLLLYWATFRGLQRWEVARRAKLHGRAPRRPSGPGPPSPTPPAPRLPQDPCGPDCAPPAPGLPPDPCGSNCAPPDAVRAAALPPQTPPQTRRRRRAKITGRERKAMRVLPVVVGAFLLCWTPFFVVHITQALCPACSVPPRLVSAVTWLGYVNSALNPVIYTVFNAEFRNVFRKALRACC
# Method: as §1
# (h) Dopamine D4.2 Receptor:
# • Reference: Van Tol et al., Nature, 350:610-614 (1991) • Source: Human recombinant CHO-K1 cells • Ligand: 0.5 nM [^3H]
# [4] = target: T3, Adrenergic α2B Receptor (Homo sapiens, UniProt P18089); test: Radioligand binding, [3H] Rauwolscine
# T3 construct: expressed in transfected cells; host or cells: CHO-K1 cells
# T3 sequence (P18089 1-450): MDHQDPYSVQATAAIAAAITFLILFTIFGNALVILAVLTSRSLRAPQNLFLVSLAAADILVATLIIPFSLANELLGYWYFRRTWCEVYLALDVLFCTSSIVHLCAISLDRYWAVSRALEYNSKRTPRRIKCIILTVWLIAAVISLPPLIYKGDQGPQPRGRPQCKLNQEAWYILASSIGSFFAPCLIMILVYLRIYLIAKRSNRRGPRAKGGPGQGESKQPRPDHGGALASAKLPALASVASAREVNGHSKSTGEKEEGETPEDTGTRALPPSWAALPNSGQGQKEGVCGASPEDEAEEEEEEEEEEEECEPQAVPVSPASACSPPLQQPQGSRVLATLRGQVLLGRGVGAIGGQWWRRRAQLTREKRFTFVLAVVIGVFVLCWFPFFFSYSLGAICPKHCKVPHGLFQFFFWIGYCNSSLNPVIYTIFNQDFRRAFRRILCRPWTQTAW
# Method: as §1
# (b) Adrenergic α2B Receptor:
# • Reference: S. Uhlen et al., Eur. J. Pharmacol., 343 (1): 93-1-01 (1998) • Source: Human recombinant CHO-K1 cells • Ligand: 2.5 nM [3H]
# [5] = target: T4, Dopamine D2L Receptor (Homo sapiens, UniProt P14416); test: Radioligand binding, [3H] Spiperone
# T4 construct: expressed in transfected cells; host or cells: CHO cells
# T4 sequence (P14416 whole entry): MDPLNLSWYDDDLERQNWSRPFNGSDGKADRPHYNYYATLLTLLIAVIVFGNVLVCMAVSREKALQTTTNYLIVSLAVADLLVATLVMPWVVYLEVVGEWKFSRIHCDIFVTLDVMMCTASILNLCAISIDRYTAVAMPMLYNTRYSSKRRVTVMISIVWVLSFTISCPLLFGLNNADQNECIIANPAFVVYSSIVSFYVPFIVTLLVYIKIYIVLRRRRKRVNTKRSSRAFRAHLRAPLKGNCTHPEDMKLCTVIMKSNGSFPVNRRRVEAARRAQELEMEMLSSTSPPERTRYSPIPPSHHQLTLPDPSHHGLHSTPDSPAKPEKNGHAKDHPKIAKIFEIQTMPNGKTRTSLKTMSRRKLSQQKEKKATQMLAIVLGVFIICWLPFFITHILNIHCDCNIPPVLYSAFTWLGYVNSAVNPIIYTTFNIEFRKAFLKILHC
# Method: as §1
# (e) Dopamine D2L Receptor:
# • Reference: Grandy et al., Proc. Natl. Acad. Sci. USA, 86:9762-9766 (1989) • Source: Human recombinant CHO cells • Ligand: 0.16 nM [^3H]
# [6] = target: T5, Adrenergic α2A Receptor (Homo sapiens, UniProt P08913); test: Radioligand binding, [3H] MK-912
# T5 construct: expressed in transfected cells; host or cells: insect Sf9 cells
# T5 sequence (P08913 1-465): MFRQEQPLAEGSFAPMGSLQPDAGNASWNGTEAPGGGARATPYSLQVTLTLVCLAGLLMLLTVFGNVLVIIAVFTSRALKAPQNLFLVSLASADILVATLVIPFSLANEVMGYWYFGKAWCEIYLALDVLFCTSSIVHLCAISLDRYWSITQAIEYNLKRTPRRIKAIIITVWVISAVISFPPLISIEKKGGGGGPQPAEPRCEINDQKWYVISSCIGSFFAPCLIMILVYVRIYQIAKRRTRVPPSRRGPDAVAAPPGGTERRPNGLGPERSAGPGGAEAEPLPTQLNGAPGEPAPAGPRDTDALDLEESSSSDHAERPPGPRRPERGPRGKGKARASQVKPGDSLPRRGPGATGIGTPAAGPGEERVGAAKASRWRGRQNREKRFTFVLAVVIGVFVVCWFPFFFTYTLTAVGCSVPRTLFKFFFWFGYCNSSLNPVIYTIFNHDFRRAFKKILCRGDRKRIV
# Method: as §1
# (a) Adrenergic α2A Receptor:
# • Reference: S. Uhlçn et al. J. Pharmacol. Exp. Ther., 271:1558-1565 (1994) • Source: Human recombinant insect Sf9 cells • Ligand: 1 nM [^3H]
# [7] = target: T6, Sigma σ2 Receptor (Rattus norvegicus, UniProt Q5U3Y7); test: Radioligand binding, [3H] Ifenprodil, brain; set-up: species or system Wistar rat
# T6 construct: Source: Wistar rat brain; from tissue; host or cells: Wistar rat brain
# T6 sequence (Q5U3Y7 1-176): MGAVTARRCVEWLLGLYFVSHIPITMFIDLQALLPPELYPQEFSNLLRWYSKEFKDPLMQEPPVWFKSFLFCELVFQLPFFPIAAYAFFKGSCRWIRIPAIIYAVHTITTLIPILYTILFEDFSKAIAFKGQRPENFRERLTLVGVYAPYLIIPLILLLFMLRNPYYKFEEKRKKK
# Method: as §1
# • Reference: Hashimoto et al., Eur. J. Pharmacol., 236:159-163, (1993) • Source: Wistar rat brain • Ligand: 3 nM [3H] Ifenprodil • Vehicle: 1% DMSO • Incubation time/Temp: 60 minutes @ 37° C. • Incubation buffer: 50 mM Tris-HCl, pH 7.4 • Non Specific ligand: 10 μM Ifenprodil • Kd: 4.8 nM • Bmax: 1.3 pmole/mg protein • Specific binding: 85% • Quantitation method: Radioligand binding • Significance criteria: ≧50% of maximum stimulation or inhibition
smiles,measurement,setting,value
"COc1cc2c(cc1O)[C@@H]1C[C@@H](O)[C@H](CC(C)C)CN1CC2 (single isomer, unassigned) [(+)-10-desmethyl-γ-dihydrotetrabenazine]","% inhibition, (k) I2 Receptor (central)",[1],24%
same,"% inhibition, (g) D3 Receptor",[2],65%
same,"% inhibition, (h) D4.2 Receptor",[3],55%
same,"% inhibition, (b) α2B Receptor",[4],21%
same,"% inhibition, (e) D2L Receptor",[5],54%
same,"% inhibition, (a) α2A Receptor",[6],13%
same,inhibition at 10 µM,"[7]; read-out: % inhibition, (n) σ2 Receptor",31%
"COc1cc2c(cc1O)[C@@H]1C[C@@H](O)[C@H](CC(C)C)CN1CC2 (single isomer, unassigned) [(−)-10-desmethyl-γ-dihydrotetrabenazine]","% inhibition, (k) I2 Receptor (central)",[1],66%
same,"% inhibition, (g) D3 Receptor",[2],101%
same,"% inhibition, (h) D4.2 Receptor",[3],90%
same,"% inhibition, (b) α2B Receptor",[4],44%
same,"% inhibition, (e) D2L Receptor",[5],98%
same,"% inhibition, (a) α2A Receptor",[6],69%
same,"% inhibition, (n) σ2 Receptor",[7]; 10 µM,32%
